Reference: article PMC8728736, “A Reactivity-Based ^18F-Labeled Probe for PET Imaging of Oxidative Stress in Chemotherapy-Induced Cardiotoxicity” (Molecular Pharmaceutics, 2021)
Where “and” joins values, the source holds several entries; their conditions need not be identical. Equal entries are not always repeated.

Experiments:
[1] = Lipophilicity, partition between 1-octanol and PBS; assay type: physicochemical; conditions: 1-octanol/PBS pH 7.4, shake-flask, n = 6
Procedure: The lipophilicity of ^18F-FPBT and ^18F-FPBT-Ox was determined by a conventional partition method between 1-octanol and phosphate buffered saline (PBS), pH 7.4. 1-Octanol was presaturated with PBS before use. The radiotracer (∼2 KBq) was added to a mixture of PBS (200 μL) and 1-octanol (200 μL) in a 1.5 mL Eppendorf vial (n = 6). The mixture was vigorously agitated at rt for 5 min and then centrifuged at 3000 g for 10 min. A 100 μL aliquot from each layer was drawn for measurement in a gamma counter. The LogDoct/PBS was calculated as follows: log [(cpm in the 1-octanol layer – cpm 1-octanol blank)/(cpm in the PBS layer – cpm PBS blank)].

[2] = Serum stability at 37 °C by radio-HPLC; assay type: in vitro ADME, rat; conditions: serum, 37 °C, up to 30 min
Procedure: ^18F-FPBT (∼3.0 MBq) in 5% ethanol in PBS (200 μL) containing sodium ascorbate (0.01 mg/mL) was incubated with rat serum (200 μL) at 37 °C for 1 min or 1 h. Subsequently, plasma proteins were precipitated from the supernatant with ice-cold acetonitrile (1.5 mL), and samples were centrifuged (3 min, 13 000 rpm). The residual activity in the pellet was <3%. The supernatant (∼2.0 MBq, 1.0 mL) was analyzed by radio-HPLC. HPLC method: ZORBAX column (300SB-C18, semipreparative 9.4 mm × 250 mm, 5 μm) using acetonitrile and water as the mobile phase, at a flow rate of 3.0 mL/min. The following gradient was used: from 50% to 90% acetonitrile in 15 min; kept at 90% acetonitrile for 10 min; from 90 to 50% acetonitrile in 5 min.
^18F-FBPT-Ox (2–4 MBq, 50 μL in 10% EtOH/PBS) was added to serum (500 μL) and incubated at 37 °C for 5, 15, and 30 min, respectively. Plasma proteins were precipitated with a 5-sulfosalicylic acid water solution (10% w/v, 1 mL) and centrifuged (3 min, 13 000 rpm). The supernatant was removed and diluted with 500 μL of DI H2O and analyzed via radio-HPLC. A control experiment was performed where ^18F-FBPT-Ox (2 MBq, 50 μL in 10% EtOH/PBS) was added to 500 μL of PBS, incubated at 37 °C for 30 min. A 5-sulfosalicylic acid water solution (10% w/v, 1 mL) was added, thoroughly mixed, then diluted with 500 μL of DI H2O, and analyzed via radio-HPLC. […]

[3] = Post-mortem biodistribution in healthy rats; assay type: in vivo, Wistar rats; conditions: iv; for Ex vivo biodistribution, Blood / Ex vivo biodistribution, Bone / Ex vivo biodistribution, Brain / Ex vivo biodistribution, Heart / Ex vivo biodistribution, Kidney / Ex vivo biodistribution, Large Intestine / Ex vivo biodistribution, Liver / Ex vivo biodistribution, Lung / Ex vivo biodistribution, Muscle / Ex vivo biodistribution, Small Intestine / Ex vivo biodistribution, Spleen / Ex vivo biodistribution, Urine: healthy rats, mean ± SD, n = 3
Procedure: Wistar rats (male, 319 ± 20 g) were injected intravenously via the tail vein with either ^18F-FPBT (1.0 ± 0.4 MBq) or ^18F-FPBT-Ox (1.1 ± 0.5 MBq). The animals were sacrificed by cervical dislocation at 1, 5, or 30 min postinjection (n = 3/group). Organs and tissues of interest were harvested and weighed, and the radioactivity was measured in a gamma counter. Organ uptake was calculated as the percentage injected dose per gram of tissue mass (% ID/g). Data are reported as mean ± SD.

[4] = In vivo blood stability of 18F-FPBT-Ox; design: species or system Wistar rats; conditions: rats, plasma radio-HPLC with gamma counting, n = 2
Procedure: Wistar rats (male, 320 ± 20 g) were intravenously injected with ^18F-FPBT-Ox (∼15 MBq). The animals were sacrificed by cervical dislocation at 30 min postinjection (n = 2). Blood samples were collected in heparin-coated tubes. After centrifugation (5 min, 13 000 rpm), the plasma (∼1 mL) was separated. Plasma proteins were subsequently precipitated with 5-sulfosalicylic acid water solution (10% w/v, 1.5 mL) and centrifuged (5 min, 13,000 rpm). The supernatant was removed and diluted with 500 μL of DI H2O and analyzed via radio-HPLC. HPLC method: ZORBAX column (300SB-C18, semipreparative 9.4 mm × 250 mm, 5 μm). Solvent A: H2O. Solvent B: MeCN. Flow rate: 3.0 mL/min; 0–5 min, 0% of B; 5–20 min, 0–50% of B; 20–30 min, 50–0% of B. HPLC eluent was collected every minute in 30 vials separately and submitted to gamma counting. The counts per minute in each vial were plotted against the corresponding time point.

[5] = Rat model of doxorubicin-induced cardiotoxicity: body weight and echocardiography; assay type: in vivo, Wistar rats; conditions: rats
Procedure: (§1) Male Wistar rats (280–300 g) were used in all experiments. Subcutaneous 7 day osmotic pumps (Alzet), containing either doxorubicin (Cambridge Bioscience, 30 mg/kg cumulative dose) or vehicle (sterile 0.9% NaCl), were inserted into rats under 2% isoflurane in 100% oxygen.
In order to assess cardiac function, all rats were subjected to a cardiac ultrasound (Vevo 770TM, VisualSonics) 1 day prior to and on day 6 of osmotic pump implantation. Rats were anesthetized with 2% isoflurane in 100% oxygen and maintained at 37 °C via a homeothermic platform and rectal thermometer. High-resolution parasternal left ventricle (LV) long axis M-mode and B-mode images were obtained using an RMV710B transducer. Images were analyzed offline using Vevo Software to determine LV function. Data are reported as mean ± SD. Statistical analysis was performed using one-way ANOVA with Tukey’s multiple comparisons test.

[6] = Ex vivo heart biomarkers of oxidative stress; assay type: in vivo, Wistar rats; conditions: hearts harvested after PET imaging, n = 4
Procedure: as §1
Total glutathione concentration was determined by an enzyme recycling method.[21] Lipid peroxidation was evaluated using the lipid peroxidation (MDA) assay kit from Sigma-Aldrich, which measures the colorimetric product that results from the reaction of malondialdehyde (MDA) present in the tissue with thiobarbituric (TBA) acid. Iron content was measured in isolated mitochondria and cytosolic fractions using the iron colorimetric assay kit from BioVision following the manufacture’s protocol.

Question: What does the source list for `[18F]CCC[n+]1c(-c2ccccc2)sc2ccccc21` [^18F-FPBT-Ox]?
Answer: LogD [1]: −1.00 ± 0.04 and ~−1; Serum stability (in words) [2]: excellent serum stability; Route of clearance / excretion, in words ([3]; healthy Wistar rats): quickly cleared by the kidneys and excreted through the urine; Uptake by major organs (brain, heart, lung, spleen), in words ([3]; healthy Wistar rats): significantly reduced uptake; Ex vivo biodistribution, Blood ([3]; 1 min): 0.36 ± 0.12 % ID/g; Ex vivo biodistribution, Bone ([3]; 1 min): 0.16 ± 0.14 % ID/g; Ex vivo biodistribution, Brain ([3]; 1 min): 0.23 ±0.19 % ID/g; Ex vivo biodistribution, Heart ([3]; 1 min): 0.39 ± 0.25 % ID/g; Ex vivo biodistribution, Kidney ([3]; 1 min): 4.22 ± 0.20 % ID/g; Ex vivo biodistribution, Large Intestine ([3]; 1 min): 0.12 ± 0.07 % ID/g; Ex vivo biodistribution, Liver ([3]; 1 min): 1.49 ± 0.65 % ID/g; Ex vivo biodistribution, Lung ([3]; 1 min): 0.31 ±0.05 % ID/g; Ex vivo biodistribution, Muscle ([3]; 1 min): 0.06 ± 0.02 % ID/g; Ex vivo biodistribution, Small Intestine ([3]; 1 min): 0.28 ± 0.20 % ID/g; Ex vivo biodistribution, Spleen ([3]; 1 min): 0.26 ± 0.13 % ID/g; Ex vivo biodistribution, Urine ([3]; 1 min): 1.39 ± 1.21 % ID/g; Ex vivo biodistribution, Blood ([3]; 5 min): 0.15 ± 0.08 % ID/g; Ex vivo biodistribution, Bone ([3]; 5 min): 0.09 ± 0.03 % ID/g; Ex vivo biodistribution, Brain ([3]; 5 min): 0.14 ± 0.11 % ID/g; Ex vivo biodistribution, Heart ([3]; 5 min): 0.18 ± 0.06 % ID/g; Ex vivo biodistribution, Kidney ([3]; 5 min): 1.15 ± 0.75 % ID/g; Ex vivo biodistribution, Large Intestine ([3]; 5 min): 0.10 ± 0.04 % ID/g; Ex vivo biodistribution, Liver ([3]; 5 min): 1.17 ± 0.37 % ID/g; Ex vivo biodistribution, Lung ([3]; 5 min): 0.21 ± 0.05 % ID/g; Ex vivo biodistribution, Muscle ([3]; 5 min): 0.05 ± 0.02 % ID/g; Ex vivo biodistribution, Small Intestine ([3]; 5 min): 1.59 ± 1.93 % ID/g; Ex vivo biodistribution, Spleen ([3]; 5 min): 0.11 ± 0.04 % ID/g; Ex vivo biodistribution, Urine ([3]; 5 min): 9.29 ± 3.02 % ID/g; Ex vivo biodistribution, Blood ([3]; 30 min): 0.09 ± 0.04 % ID/g; Ex vivo biodistribution, Bone ([3]; 30 min): 0.12 ± 0.06 % ID/g; Ex vivo biodistribution, Brain ([3]; 30 min): 0.07 ± 0.07 % ID/g; Ex vivo biodistribution, Heart ([3]; 30 min): 0.11 ± 0.06 % ID/g; Ex vivo biodistribution, Kidney ([3]; 30 min): 0.59 ± 0.31 % ID/g; Ex vivo biodistribution, Large Intestine ([3]; 30 min): 0.05 ± 0.04 % ID/g; Ex vivo biodistribution, Liver ([3]; 30 min): 0.90 ± 0.59 % ID/g; Ex vivo biodistribution, Lung ([3]; 30 min): 0.12 ± 0.07 % ID/g; Ex vivo biodistribution, Muscle ([3]; 30 min): 0.03 ± 0.00 % ID/g; Ex vivo biodistribution, Small Intestine ([3]; 30 min): 0.63 ± 0.64 % ID/g; Ex vivo biodistribution, Spleen ([3]; 30 min): 0.07 ± 0.05 % ID/g; Ex vivo biodistribution, Urine ([3]; 30 min): 15.80 ± 12.98 % ID/g; Time stable in blood post IV injection [4]: at least 30 min

Question: Which results are given for `COc1cccc2c1C(=O)c1c(O)c3c(c(O)c1C2=O)C[C@@](O)(C(=O)CO)C[C@@H]3O[C@H]1C[C@H](N)[C@H](O)[C@H](C)O1` [doxorubicin]?
Answer: Body weight decrease ([5]; doxorubicin 30 mg/kg cumulative dose by 7 day osmotic pump, implantation to day 7, n = 6): 16.2 ± 8.9%; Reduction of left ventricular ejection fraction at day 6 compared to baseline at day 0 ([5]; doxorubicin 30 mg/kg cumulative dose by osmotic pump, echocardiography): 15%; Left ventricular ejection fraction compared to time-matched vehicle controls at day 6 ([5]; echocardiography): cannot detect the statistical difference; Cardiac oxidative stress biomarkers (glutathione, maldonaldehyde, mitochondrial iron, cytosolic iron) compared to saline control group [6]: marginally higher
